According to BindingDB's records for doi:10.1021/acs.jmedchem.8b01224 (Helmholtz Zentrum M?nchen, 2018):

Legend:
[1] = target: T1, Tyrosine-protein phosphatase non-receptor type 1 (Homo sapiens, UniProt P18031); assay: (§1) Binding affinity to human N-terminal His6-tagged PTP1B catalytic domain (1 to 298 residues) expressed in Escherichia coli strain Rosetta2 (DE3) assessed as dissociation rate constant using DiFMUP as substrate preincubated for 10 mins followed by substrate addition measured for 10 mins fluorescence assay
T1 sequence (P18031 whole entry): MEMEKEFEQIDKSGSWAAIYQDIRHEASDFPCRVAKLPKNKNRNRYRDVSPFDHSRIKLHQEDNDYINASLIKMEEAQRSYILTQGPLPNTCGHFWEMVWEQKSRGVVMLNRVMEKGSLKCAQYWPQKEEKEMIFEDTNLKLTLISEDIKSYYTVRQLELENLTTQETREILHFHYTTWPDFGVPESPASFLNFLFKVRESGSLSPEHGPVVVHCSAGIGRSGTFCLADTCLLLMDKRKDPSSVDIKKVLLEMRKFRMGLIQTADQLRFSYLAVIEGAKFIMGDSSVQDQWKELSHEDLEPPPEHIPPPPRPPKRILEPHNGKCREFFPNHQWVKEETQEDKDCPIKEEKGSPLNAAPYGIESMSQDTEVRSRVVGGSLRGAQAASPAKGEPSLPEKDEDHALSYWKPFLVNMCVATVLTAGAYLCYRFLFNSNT

[2] = target: T1, Tyrosine-protein phosphatase non-receptor type 1; assay: as §1, with “association” for “dissociation”

C=c1c(O)c(O)cc2c1=CC=C1[C@@]2(C)CC[C@@]2(C)[C@@H]3C[C@](C)(C(=O)O)CC[C@]3(C)CC[C@]12C
koff [1]: 0.000362 s⁻¹
kon [2]: 59 M⁻¹ s⁻¹
